Source: patent US12552783B2, “Modulators of proteolysis and associated methods of use” (Arvinas Operations, Inc., priority 2018, dated 2026)

Molecular target: KRas (Homo sapiens, UniProt P01116, G12C)
Test: KRas degradation in SW1573 cells by Western blot, normalized to GAPDH (data of Table 14)
Type: cell-based
Details: SW1573 cells
In short: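 SW1573 cells, homozygous for the KRas G12C mutation and maintained in DMEM with 10% FBS and 1% penicillin-streptomycin, were seeded in 12-well plates, allowed to attach overnight at 37° C. under 5% CO2, then serum-starved for 24 hours before compound exposure. KRas levels were measured by Western blot, normalized to GAPDH, and compared with DMSO controls to give percent degradation, DC50 and Dmax.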

Structure (SMILES)	Percent Degradation at Indicated Concentration (μM) (0.03 μM)	Percent Degradation at Indicated Concentration (μM) (0.1 μM)	Percent Degradation at Indicated Concentration (μM) (0.3 μM)	Percent Degradation at Indicated Concentration (μM) (1 μM)	DC50 [nM]	Dmax [%]	Percent Degradation at Indicated Concentration (μM) (0.01 μM)
C=CC(=O)N1CCN(c2nc(O[C@H](C)CN3CCC(OCCOCCOCCOCCOc4cc([C@H](C(=O)N5C[C@H](O)C[C@H]5C(=O)N[C@@H](C)c5ccc(-c6scnc6C)cc5)C(C)C)on4)CC3)nc3c(F)c(-c4cc(O)cc5ccccc45)c(Cl)cc23)CC1 [compound 530, (2S,4R)-1-((2R)-2-(3-(2-(2-(2-(2-((1-((2R)-2-((4-(4-acryloylpiperazin-1-yl)-6-chloro-8-fluoro-7-(3-hydroxynaphthalen-1-yl)quinazolin-2-yl)oxy)propyl)piperidin-4-yl)oxy)ethoxy)ethoxy)ethoxy)ethoxy)isoxazol-5-yl)-3-methylbutanoyl)-4-hydroxy-N-((S)-1-(4-(4-methylthiazol-5-yl)phenyl)ethyl)pyrrolidine-2-carboxamide]	C (Percent Degradation: C ≤ 35)	C (Percent Degradation: C ≤ 35)	C (Percent Degradation: C ≤ 35)				
C=CC(=O)N1CCN(c2nc(O[C@H](C)CN3CCC(OCCOCCOCCOc4cc([C@H](C(=O)N5C[C@H](O)C[C@H]5C(=O)N[C@@H](C)c5ccc(-c6scnc6C)cc5)C(C)C)on4)CC3)nc3c(F)c(-c4cc(O)cc5ccccc45)c(Cl)cc23)CC1 [compound 529, (2S,4R)-1-((2R)-2-(3-(2-(2-(2-((1-((2R)-2-((4-(4-acryloylpiperazin-1-yl)-6-chloro-8-fluoro-7-(3-hydroxynaphthalen-1-yl)quinazolin-2-yl)oxy)propyl)piperidin-4-yl)oxy)ethoxy)ethoxy)ethoxy)isoxazol-5-yl)-3-methylbutanoyl)-4-hydroxy-N-((S)-1-(4-(4-methylthiazol-5-yl)phenyl)ethyl)pyrrolidine-2-carboxamide]	C (Percent Degradation: C ≤ 35)	C (Percent Degradation: C ≤ 35)	C (Percent Degradation: C ≤ 35)				
C=CC(=O)N1CCN(c2nc(O[C@H](C)CN3CCC(OCCOCCOCCOCCOc4cc(-c5scnc5C)ccc4CNC(=O)[C@@H]4C[C@@H](O)CN4C(=O)[C@H](c4cc(C)no4)C(C)C)CC3)nc3c2CCN(c2cc(O)cc4ccccc24)C3)CC1 [compound 443, (2S,4R)-N-(2-(2-(2-(2-(2-((1-((R)-2-((4-(4-acryloylpiperazin-1-yl)-7-(3-hydroxynaphthalen-1-yl)-5,6,7,8-tetrahydropyrido[3,4-d]dipyrimidin-2-yl)oxy)propyl)piperidin-4-yl)oxy)ethoxy)ethoxy)ethoxy)ethoxy)-4-(4-methylthiazol-5-yl)benzyl)-4-hydroxy-1-((S)-3-methyl-2-(3-methylisoxazol-5-yl)butanoyl)pyrrolidine-2-carboxamide]		C (Percent Degradation: C ≤ 35)	C (Percent Degradation: C ≤ 35)	C (Percent Degradation: C ≤ 35)			
C=CC(=O)N1CCN(c2nc(O[C@H](C)CN3CCC(OCCOCCOc4ccc5c(c4)C(=O)N(C4CCC(=O)NC4=O)C5=O)CC3)nc3c(F)c(-c4cc(O)cc5ccccc45)c(Cl)cc23)CC1 (stereo partly drawn) [compound 427, 5-(2-(2-((1-((2R)-2-((4-(4-acryloylpiperazin-1-yl)-6-chloro-8-fluoro-7-(3-hydroxynaphthalen-1-yl)quinazolin-2-yl)oxy)propyl)piperidin-4-yl)oxy)ethoxy)ethoxy)-2-(2,6-dioxopiperidin-3-yl)isoindoline-1,3-dione]		C (Percent Degradation: C ≤ 35)	C (Percent Degradation: C ≤ 35)	C (Percent Degradation: C ≤ 35)			
C=CC(=O)N1CCN(c2nc(O[C@H](C)CN3CCC(OCCOCCOCCOCCOc4cc(-c5scnc5C)ccc4CNC(=O)[C@@H]4C[C@@H](O)CN4C(=O)[C@@H](c4cc(C)no4)C(C)C)CC3)nc3c2CCN(c2cc(O)cc4ccccc24)C3)CC1 [compound 442]		C (Percent Degradation: C ≤ 35)	C (Percent Degradation: C ≤ 35)	C (Percent Degradation: C ≤ 35)			
C=CC(=O)N1CCN(c2nc(O[C@H](C)CN(C)CCOCCOCCOCCOCC(=O)N[C@H](C(=O)N3C[C@H](O)C[C@H]3C(=O)N[C@@H](C)c3ccc(-c4scnc4C)cc3)C(C)(C)C)nc3c(F)c(-c4cc(O)cc5ccccc45)c(Cl)cc23)CC1 [compound 397, (2S,4R)-1-((2S,20R)-20-((4-(4-acryloylpiperazin-1-yl)-6-chloro-8-fluoro-7-(3-hydroxynaphthalen-1-yl)quinazolin-2-yl)oxy)-2-(tert-butyl)-18-methyl-4-oxo-6,9,12,15-tetraoxa-3,18-diazahenicosanoyl)-4-hydroxy-N-((S)-1-(4-(4-methylthiazol-5-yl)phenyl)ethyl)pyrrolidine-2-carboxamide]	C (Percent Degradation: C ≤ 35)	C (Percent Degradation: C ≤ 35)	C (Percent Degradation: C ≤ 35)	C (Percent Degradation: C ≤ 35)	100 to 1000	≤ 35	C (Percent Degradation: C ≤ 35)
C=CC(=O)N1CCN(c2nc(O[C@H](C)CN3CCC(OCCOCCOCC(=O)N[C@H](C(=O)N4C[C@@H](O)C[C@H]4C(=O)N[C@@H](C)c4ccc(-c5scnc5C)cc4)C(C)(C)C)CC3)nc3c(F)c(-c4cc(O)cc5ccccc45)c(Cl)cc23)CC1 [compound 405, (2S,4S)-1-((2S)-2-(2-(2-(2-((1-((2R)-2-((4-(4-acryloylpiperazin-1-yl)-6-chloro-8-fluoro-7-(3-hydroxynaphthalen-1-yl)quinazolin-2-yl)oxy)propyl)piperidin-4-yl)oxy)ethoxy)ethoxy)acetamido)-3,3-dimethylbutanoyl)-4-hydroxy-N-((S)-1-(4-(4-methylthiazol-5-yl)phenyl)ethyl)pyrrolidine-2-carboxamide]		C (Percent Degradation: C ≤ 35)	C (Percent Degradation: C ≤ 35)	C (Percent Degradation: C ≤ 35)			
C=CC(=O)N1CCN(c2nc(O[C@H](C)CN3CCC(OCCOc4ccc5c(c4)C(=O)N(C4CCC(=O)NC4=O)C5=O)CC3)nc3c(F)c(-c4cc(O)cc5ccccc45)c(Cl)cc23)CC1 (stereo partly drawn) [compound 426, 5-(2-((1-((2R)-2-((4-(4-acryloylpiperazin-1-yl)-6-chloro-8-fluoro-7-(3-hydroxynaphthalen-1-yl)quinazolin-2-yl)oxy)propyl)piperidin-4-yl)oxy)ethoxy)-2-(2,6-dioxopiperidin-3-yl)isoindoline-1,3-dione]		C (Percent Degradation: C ≤ 35)	C (Percent Degradation: C ≤ 35)	C (Percent Degradation: C ≤ 35)			
